Results from US20160220557A1, “USE OF ACETYL-COA CARBOXYLASE INHIBITORS FOR TREATING ACNE VULGARIS” (PFIZER INC., priority 2013, published 2016).

Legend:
[1] = test system: SZ95 human sebocyte cells; experiment: Inhibition of de novo lipogenesis (14C-acetate incorporation) in cultured human sebocytes; type: cell-based; conditions: Homo sapiens, SZ95 sebocytes, 14C-acetate incorporation into lipids relative to vehicle; read-out: C9302E Sebocyte IC50
Method: SZ95 sebocytes were grown in Human Sebocyte Growth Medium (HSGM) (Sebomed® medium (Biochrom: F8205) supplemented with 10% heat-inactivated fetal bovine serum, 1% penicillin/streptomycin, 1 mM calcium chloride and 5 ng/mL recombinant human epidermal growth factor (Life Tech: PHG0311)). At 90% confluence, cells were washed three times with PBS and then detached with 0.05% Trypsin-EDTA. Cells were centrifuged and resuspended in HSGM containing 10% charcoal-stripped serum (Life Tech: 12676-029). Cells were then plated in 24-well plates at a density of 0.25×10^6 cells/well and were incubated overnight to enable cell adherence to the culture plate.
Cells were treated with a dose response of compound, and each dose was assayed in triplicate. Briefly, compounds were dissolved in DMSO stocks and diluted 1:1000 into charcoal-stripped media. 0.1% DMSO without compound was used as the vehicle control. After a 1 hour preincubation with compound or vehicle, 0.25 μCi ^14C-acetic acid (American Radiolabeled Chemicals: ARC0158B) was added to each well. Plates were then incubated for an additional two hours. At the end of the incubation period, cells were removed from incubator, placed on ice, and then washed twice with ice-cold PBS to remove free ^14C-acetic acid. Plates were sealed and stored at −20° C. until analysis.
Plates were shaken for 1 hour at room temperature to induce lysis. Lysates were transferred to individual 1.5 mL polypropylene tubes, and wells were washed with 175 μl of PBS, which was added to lysates. 450 μl of a 1:1 (v/v) chloroform:methanol solution was then added to each tube, and then all tubes were vortexed for 10 seconds and centrifuged at 20,000×g for 5 minutes at room temperature to separate aqueous from organic phase. A 25 μl aliquot was removed from the bottom organic layer of each sample and added to 6 mL OptiPhase supermix (PerkinElmer: 1200-439) scintillation fluid. Counts of ^14C incorporated into lipids were assessed by scintillation counting. DNL (counts of ^14C incorporated into lipids) was expressed for compound treated cells relative to DNL in the vehicle control treated cells for determination of EC50 values. For a subset of the compounds tested, a second aliquot (3×35 μl) of the organic layer of each sample was removed and applied to a TLC lane (Analtech Silica Gel G Plates). Radiolabeled lipids were resolved using a 2-solvent system. Solvent 1 contained a 100:100:100:40:36 mixture of ethyl acetate:isopropyl alcohol:CHCl3:MeOH:0.25% KCl and solvent 2 a 70:27:3 hexane:diethyl ether:acetic acid mix. The TLC plate was dried under nitrogen for 30 minutes and [^14C]-calibrators added to a vacant lane. Bands were visualized and quantitated using a Molecular Dynamics' Storm 860 Phosphorimager system following 18-36 hours exposure to a Phosphorimager screen.

[2] = test system: de novo lipogenesis in ear skin and liver; experiment: Effect of oral and topical ACCi on DNL (14C-acetate incorporation) in Syrian hamsters; type: in vivo, Syrian hamster; conditions: oral 100 mg/kg single dose, vs. vehicle
Method: Male Syrian gold Hamster at ˜10 weeks were maintained adlibitum on standard hamster chow and water. […] Example 3 for topical delivery was prepared as a solution in a vehicle consisting of 70:30 (Ethanol:propylene glycol) at a concentration of 100 mg/ml. Topical administration of a single dose (5 ul/ear) was applied to hamster ears with a pipette (2-10 ul) tip adhering to 2 minute intervals following the dosing order. The dosing timing allowed for the formulation to spread evenly over an approximate 1 sq cm area and absorb/dry prior to returning the animal to the cage. 1 hour post ACCi dose each animal received an IP injection of ^14C-labeled acetate (ARC0158B diluted in saline) following the 2 minute interval timing format. Each animal received an individually calculated amount of ^14C-acetate based on body weight (0.1 μCi/g in a dosing volume of 2 μl/g). One hour after the ^14C-Acetate injection animals were sacrificed by CO2 asphyxiation.
Liver and ear skin were collected for de novo lipogenesis determinations (^14C incorporation to lipid). Briefly, 2 liver punches totaling ˜400 mg of liver were collected from the bifurcated median lobe of each animal (using a 8 mm diameter Sklar Tru-punch—Sklar Instruments), rinsed with saline and blotted dry. The tissues were placed into pre-weighed in glass tubes (Pyrex 9826-16×125 mm with PTFE lined caps) containing NaOH (1.5 mL of 2.5 M).
Ear skin samples were prepared for analysis in the following manner. One 8 mm distal biopsy punch (using an 8 mm diameter Sklar Tru-punch—Sklar Instruments) (2 per animal) was taken just above the anatomical “V” in the aural cartilage to standardize sample collection area. The punch was then split into 2 layers (anterior and posterior). The anterior (front) surface is retained for analysis. The anterior skin was placed into pre-weighed in glass tubes (Pyrex 9826-16×125 mm with PTFE lined caps) containing NaOH (1.5 mL of 2.5 M).
Upon completion of the study, the liver and ear skin samples in NaOH were weighed and this weight was used to calculate the mass of the tissue collected. The capped tubes were heated in an dry oven (˜60° C.) until the tissue was fully degraded (˜4-6 hr, gentle vortexing 2-3 times during heating). Following degradation and cooling absolute ethanol (2.5 mL) was added to each sample. The tubes were recapped and vigorously mixed (vortexed) for 60 seconds and allowed to settle overnight at RT. Petroleum ether (4.8 mL) was added to each tube, recapped and the samples were vigorous mixed (60 sec). […] Aquasol-2 scintillation fluid (10 mL) (or other compatible scintillation fluid) was added to each vial and after vortexing the samples were counted in an appropriate scintillation counter (e g. Wallac Rack-Beta 1409 LSC). […]

[3] = test system: ear skin triglyceride levels; experiment: Hamster ear triglyceride content after chronic treatment; type: in vivo, Syrian hamster; conditions: oral 30 mg/kg once daily for 19 days
Method: Male Syrian gold hamsters weighing between 150-200 g (22-23 weeks) were maintained adlibitum on standard hamster chow and on a 12 hour light and dark cycle. […] At the end of the study period, animals were euthanized by CO2 asphyxiation. Hamster pinia (ear) were removed by punch biopsy (using an 8 mm diameter Sklar Tru-punch—Sklar Instruments). Punch biopsies were taken just above the anatomical “V” in the aural cartilage of each ear to standardize sample collection area. The punch was then split into 2 layers (anterior and posterior). The anterior (front) surface was retained for analysis. For liver samples the bifurcated medial lobe was removed, rinsed in saline and drained of blood by placing the cut end of the lobe on a sterile absorbent paper and using capillary action. The liver lobe was then flash frozen in liquid nitrogen. Two Qiagen 3 mm Tungsten beads were added to tubes containing individual anterior biopsies of hamster ear skin along with 500 ul of homogenization buffer (methanol:water 1:1 v/v). […] Ear skin triglyceride content was determined via LC-MS on the AB SCIEX Qtrap 5500. […] Lipid extracts were then analyzed by UPLC-MS/MS using a Waters Acquity UPLC coupled to an AB Sciex QTRAP 5500 mass spectrometer. […] Lipid species were then analyzed on the mass spectrometer using positive ion electrospray ionization in the multiple reaction monitoring (MRM) mode. […]

IC50 [1]: 0.549 µM
Structure (SMILES): CC(C)(C)n1cc2c(n1)C(=O)CC1(CCN(C(=O)c3ccc4[nH]ncc4c3)CC1)O2 [Example 8, 2′-(tert-butyl)-1-(1H-indazole-5-carbonyl)-2′H-spiro[piperidine-4,5′-pyrano[3,2-c]pyrazol]-7′(6′H)-one]
suppression of incorporation of de novo synthesized fatty acids in liver [2]: 85%
suppression of incorporation of de novo synthesized fatty acids in skin [2]: 84%
ear skin triglyceride levels vs. vehicle [3]: No changes
